Assay results taken from ChEMBL document CHEMBL1144436, “1-(Phenyl)isoquinoline carboxamides: a novel class of subtype selective inhibitors of thyrotropin-releasing hormone (TRH) receptors” (Bioorg Med Chem Lett, 2005).
Where “and” joins values, the source holds several entries; their conditions need not be identical. Identical values can stand only once.

Target: T1, Thyrotropin-releasing hormone receptor (Mus musculus) (UniProt P21761)
T1 sequence (whole entry): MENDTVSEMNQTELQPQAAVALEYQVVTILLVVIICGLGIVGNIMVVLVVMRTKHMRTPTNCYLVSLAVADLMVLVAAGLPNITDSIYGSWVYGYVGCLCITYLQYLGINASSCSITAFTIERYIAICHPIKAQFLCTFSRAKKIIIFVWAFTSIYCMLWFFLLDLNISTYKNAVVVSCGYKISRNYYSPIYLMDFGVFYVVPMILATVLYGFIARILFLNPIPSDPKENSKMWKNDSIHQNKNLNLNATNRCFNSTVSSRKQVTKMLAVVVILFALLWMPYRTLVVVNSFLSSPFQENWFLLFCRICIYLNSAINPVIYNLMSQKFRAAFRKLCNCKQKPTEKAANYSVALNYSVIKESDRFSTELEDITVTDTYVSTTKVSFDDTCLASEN
Assay: Displacement of [3H]MeTRH from Thyrotropin releasing hormone receptor 1 was measured; expressed as %

SMILES	Competition
CCC(C)NC(=O)c1cc2ccccc2c(-c2ccc([N+](=O)[O-])cc2)n1 (configuration not stated)	16% and 40%
CNC(=O)c1cc2ccccc2c(-c2ccccc2Cl)n1	33% and 29%
CCC(C)NC(=O)c1cc2ccccc2c(-c2cccc([N+](=O)[O-])c2)n1 (configuration not stated)	21% and 31%
CCCNC(=O)c1cc2ccccc2c(-c2ccccc2Cl)n1	78% and 91%
CCC(C)N(C)C(=O)c1cc2ccccc2c(-c2ccccc2Cl)n1 (stereo in doubt; 10)	73% and 90%
CCC(C)N(C)C(=O)c1cc2ccccc2c(-c2ccccc2Cl)n1 (stereo in doubt)	44% and 56%
CCCCN(C)C(=O)c1cc2ccccc2c(-c2ccccc2Cl)n1	84% and 92%
